Assay results from US20130217702A1 (Richter Gedeon Nyrt., priority 2010, published 2013).

How the values were obtained:
[1] = target: T1, recombinant human B1 receptors (Homo sapiens, UniProt P46663); experiment: Functional assay: antagonist potency by cytosolic calcium measurement (plate reader fluorimeter) in CHO-B1 cells, agonist LysDABK; assay type: cell-based; details: CHO-B1 cells, inhibition of LysDABK (EC80)-evoked [Ca2+]i elevation; read-out: B1 func.
T1 construct: host or cells: CHO (CHO-B1)
T1 sequence (P46663 1-353): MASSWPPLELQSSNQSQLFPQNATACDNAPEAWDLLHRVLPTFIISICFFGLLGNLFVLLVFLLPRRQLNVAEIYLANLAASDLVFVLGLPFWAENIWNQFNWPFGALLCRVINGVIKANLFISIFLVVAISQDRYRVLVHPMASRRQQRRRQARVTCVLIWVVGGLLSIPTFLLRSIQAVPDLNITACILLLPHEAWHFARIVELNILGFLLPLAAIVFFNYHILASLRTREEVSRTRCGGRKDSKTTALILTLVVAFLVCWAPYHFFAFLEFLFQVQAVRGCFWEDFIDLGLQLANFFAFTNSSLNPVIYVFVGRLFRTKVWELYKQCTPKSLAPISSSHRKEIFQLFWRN
Method in brief: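 IC50 is the concentration giving half-maximal inhibition of the LysDABK (EC80) calcium response, fitted from at least three experiments. CHO cells stably expressing human B1 were dye-loaded, exposed to compound for 20-25 min, then read by fluo-4 fluorescence (ΔF/F) at 37 °C.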

[2] = target: T2, human recombinant bradykinin B1 receptor (Homo sapiens, UniProt P46663); experiment: Human recombinant bradykinin B1 receptor competitive radioligand binding; details: hB1 expressed in CHO cells, [3H]-[Des-Arg10] Kallidin radioligand; read-out: B1 binding
T2 construct: host or cells: CHO cells, clone hB1-A5
T2 sequence (P46663 1-353): T1 sequence (P46663 1-353)
Method in brief: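 Competition radioligand binding on CHO-expressed hB1 membranes, using [3,4-prolyl-3,4-^3H(N)]-[Des-Arg^10] Kallidin as tracer, 15 min at 25° C. Excess Lys-des-Arg^9-Bradykinin (10 μM) set nonspecific binding. Sigmoidal fits of at least seven concentrations gave IC50, converted to Ki via Cheng-Prusoff; KD from Scatchard.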

Row | Compound | IC50 [1] | Ki [2]
1 | Cc1nc(-c2c(Cl)c3ccccc3n2-c2ccc(CNC(=O)C3(NC(=O)c4cccc(C#N)c4)CC3)cc2)no1 [Example 146, N-(1-{4-[3-Chloro-2-(5-methyl-[1,2,4]oxadiazol-3-yl)-indol-1-yl]-benzylcarbamoyl}-cyclopropyl)-3-cyano-benzamide] | < 20 nM | < 20 nM
2 | Cc1nc(-c2c(Cl)c3ccccc3n2-c2ccc(CNC(=O)C3(NC(=O)Cc4ccsc4)CC3)cc2)no1 [Example 147, 1-(2-Thiophen-3-yl-acetylamino)-cyclopropanecarboxylic acid 4-[3-chloro-2-(5-methyl-[1,2,4]oxadiazol-3-yl)-indol-1-yl]-benzylamide] | 20 to 100 nM | 100 to 500 nM
3 | Cc1nc(-c2c(Cl)c3ccccc3n2-c2ccc(CNC(=O)C3(NC(=O)c4cc(C)n(C)n4)CC3)cc2)no1 [Example 148, 1,5-Dimethyl-1H-pyrazole-3-carboxylic acid (1-{4-[3-chloro-2-(5-methyl-[1,2,4]oxadiazol-3-yl)-indol-1-yl]-benzylcarbamoyl}-cyclopropyl)-amide] | 20 to 100 nM | < 20 nM
4 | Cc1nc(-c2c(Cl)c3ccccc3n2-c2ccc(CNC(=O)C3(NC(=O)c4scnc4C)CC3)cc2)no1 [Example 149, 4-Methyl-thiazole-5-carboxylic acid (1-{4-[3-chloro-2-(5-methyl-[1,2,4]oxadiazol-3-yl)-indol-1-yl]-benzylcarbamoyl}-cyclopropyl)-amide] | 20 to 100 nM | < 20 nM
5 | Cc1nc(-c2c(Cl)c3ccccc3n2-c2ccc(CNC(=O)C3(NC(=O)c4sc(C)nc4C)CC3)cc2)no1 [Example 150, 2,4-Dimethyl-thiazole-5-carboxylic acid (1-{4-[3-chloro-2-(5-methyl-[1,2,4]oxadiazol-3-yl)-indol-1-yl]-benzylcarbamoyl}-cyclopropyl)-amide] | 20 to 100 nM | < 20 nM
6 | CC(=O)NC(CO)C(=O)NC1(C(=O)NCc2ccc(-n3c(-c4noc(C)n4)c(Cl)c4ccccc43)cc2)CC1 (stereo not drawn) [Example 151, 1-(2-Acetylamino-3-hydroxy-propionylamino)-cyclopropanecarboxylic acid 4-[3-chloro-2-(5-methyl-[1,2,4]oxadiazol-3-yl)-indol-1-yl]-benzylamide] | 100 to 500 nM | 100 to 500 nM
7 | Cc1cc(C(=O)NC2(C(=O)NCc3ccc(-n4c(-c5noc(C)n5)c(Cl)c5ccccc54)cc3)CC2)n[nH]1 [Example 152, 5-Methyl-1H-pyrazole-3-carboxylic acid (1-{4-[3-chloro-2-(5-methyl-[1,2,4]oxadiazol-3-yl)-indol-1-yl]-benzylcarbamoyl}-cyclopropyl)-amide] | 20 to 100 nM | < 20 nM
8 | Cc1nc(-c2c(Cl)c3ccccc3n2-c2ccc(CNC(=O)C3(NC(=O)c4cccnc4Cl)CC3)cc2)no1 [Example 153, 2-Chloro-N-(1-{4-[3-chloro-2-(5-methyl-[1,2,4]oxadiazol-3-yl)-indol-1-yl]-benzylcarbamoyl}-cyclopropyl)-nicotinamide] | < 20 nM | < 20 nM
9 | Cc1ccc(C(=O)NC2(C(=O)NCc3ccc(-n4c(-c5noc(C)n5)c(Cl)c5ccccc54)cc3)CC2)cn1 [Example 154, N-(1-{4-[3-Chloro-2-(5-methyl-[1,2,4]oxadiazol-3-yl)-indol-1-yl]-benzylcarbamoyl}-cyclopropyl)-6-methyl-nicotinamide] | < 20 nM | < 20 nM
10 | Cc1nc(-c2c(Cl)c3ccccc3n2-c2ccc(CNC(=O)C3(NC(=O)c4cccnc4C)CC3)cc2)no1 [Example 155, N-(1-{4-[3-Chloro-2-(5-methyl-[1,2,4]oxadiazol-3-yl)-indol-1-yl]-benzylcarbamoyl}-cyclopropyl)-2-methyl-nicotinamide] | 20 to 100 nM | 20 to 100 nM
11 | Cc1ccc(C(=O)NC2(C(=O)NCc3ccc(-n4c(-c5noc(C)n5)c(Cl)c5ccccc54)cc3)CC2)c(Cl)n1 [Example 156, 2-Chloro-N-(1-{4-[3-chloro-2-(5-methyl-[1,2,4]oxadiazol-3-yl)-indol-1-yl]-benzylcarbamoyl}-cyclopropyl)-6-methyl-nicotinamide] | < 20 nM | < 20 nM
12 | Cc1nc(-c2c(Cl)c3ccccc3n2-c2ccc(CNC(=O)C3(NC(=O)c4cccc(Br)n4)CC3)cc2)no1 [Example 157, 6-Bromo-pyridine-2-carboxylic acid (1-{4-[3-chloro-2-(5-methyl-[1,2,4]oxadiazol-3-yl)-indol-1-yl]-benzylcarbamoyl}-cyclopropyl)-amide] | 20 to 100 nM | < 20 nM
13 | Cc1nc(-c2c(Cl)c3ccccc3n2-c2ccc(CNC(=O)C3(NC(=O)c4cccnc4)CC3)cc2)no1 [Example 158, N-(1-{4-[3-Chloro-2-(5-methyl-[1,2,4]oxadiazol-3-yl)-indol-1-yl]-benzylcarbamoyl}-cyclopropyl)-nicotinamide] | < 20 nM | < 20 nM
14 | Cc1nc(-c2c(Cl)c3ccccc3n2-c2ccc(CNC(=O)C3(NC(=O)c4cnc5ccccc5c4)CC3)cc2)no1 [Example 159, Quinoline-3-carboxylic acid (1-{4-[3-chloro-2-(5-methyl-[1,2,4]oxadiazol-3-yl)-indol-1-yl]-benzylcarbamoyl}-cyclopropyl)-amide] | < 20 nM | < 20 nM
15 | Cc1nc(-c2c(Cl)c3ccccc3n2-c2ccc(CNC(=O)C3(NC(=O)c4ccc(=O)[nH]c4)CC3)cc2)no1 [Example 160, 6-Oxo-1,6-dihydro-pyridine-3-carboxylic acid (1-{4-[3-chloro-2-(5-methyl-[1,2,4]oxadiazol-3-yl)-indol-1-yl]-benzylcarbamoyl}-cyclopropyl)-amide] | < 20 nM | < 20 nM
16 | Cc1cnc(C(=O)NC2(C(=O)NCc3ccc(-n4c(-c5noc(C)n5)c(Cl)c5ccccc54)cc3)CC2)cn1 [Example 161, 5-Methyl-pyrazine-2-carboxylic acid (1-{4-[3-chloro-2-(5-methyl-[1,2,4]oxadiazol-3-yl)-indol-1-yl]-benzylcarbamoyl}-cyclopropyl)-amide] | 20 to 100 nM | < 20 nM
17 | Cc1nc(-c2c(Cl)c3ccccc3n2-c2ccc(CNC(=O)C3(NC(=O)c4cccc(=O)[nH]4)CC3)cc2)no1 [Example 162, 6-Oxo-1,6-dihydro-pyridine-2-carboxylic acid (1-{4-[3-chloro-2-(5-methyl-[1,2,4]oxadiazol-3-yl)-indol-1-yl]-benzylcarbamoyl}-cyclopropyl)-amide] | < 20 nM | < 20 nM
18 | Cc1nc(-c2c(Cl)c3ccccc3n2-c2ccc(CNC(=O)C3(NC(=O)CC(F)(F)F)CC3)cc2)no1 [Example 163, 1-(3,3,3-Trifluoro-propionylamino)-cyclopropanecarboxylic acid 4-[3-chloro-2-(5-methyl-[1,2,4]oxadiazol-3-yl)-indol-1-yl]-benzylamide] | < 20 nM | < 20 nM
19 | Cc1nc(-c2c(Cl)c3ccccc3n2-c2ccc(CNC(=O)C3(NC(=O)c4ccnc(F)c4)CC3)cc2)no1 [Example 164, N-(1-{4-[3-Chloro-2-(5-methyl-[1,2,4]oxadiazol-3-yl)-indol-1-yl]-benzylcarbamoyl}-cyclopropyl)-2-fluoro-isonicotinamide] | < 20 nM | < 20 nM
20 | Cc1nc(-c2c(Cl)c3ccccc3n2-c2ccc(CNC(=O)C3(NC(=O)c4cc(C5CC5)on4)CC3)cc2)no1 [Example 165, 5-Cyclopropyl-isoxazole-3-carboxylic acid (1-{4-[3-chloro-2-(5-methyl-[1,2,4]oxadiazol-3-yl)-indol-1-yl]-benzylcarbamoyl}-cyclopropyl)-amide] | < 20 nM | < 20 nM
21 | Cc1nc(-c2c(Cl)c3ccccc3n2-c2ccc(CNC(=O)C3(NC(=O)c4cncnc4)CC3)cc2)no1 [Example 166, Pyrimidine-5-carboxylic acid (1-{4-[3-chloro-2-(5-methyl-[1,2,4]oxadiazol-3-yl)indol-1-yl]-benzylcarbamoyl}-cyclopropyl)-amide] | < 20 nM | < 20 nM
22 | Cc1nc(-c2c(Cl)c3ccccc3n2-c2ccc(CNC(=O)C3(NC(=O)c4ccsc4)CC3)cc2)no1 [Example 167, Thiophene-3-carboxylic acid (1-{4-[3-chloro-2-(5-methyl-[1,2,4]oxadiazol-3-yl)-indol-1-yl]-benzylcarbamoyl}-cyclopropyl)-amide] | 20 to 100 nM | 20 to 100 nM
23 | Cc1nc(-c2c(Cl)c3ccccc3n2-c2ccc(CNC(=O)C3(NC(=O)C4CCC(=O)N4)CC3)cc2)no1 (stereo not drawn) [Example 168, 5-Oxo-pyrrolidine-2-carboxylic acid (1-{4-[3-chloro-2-(5-methyl-[1,2,4]oxadiazol-3-yl)-indol-1-yl]-benzylcarbamoyl}-cyclopropyl)-amide] | 20 to 100 nM | < 20 nM
24 | Cc1nc(-c2c(Cl)c3ccccc3n2-c2ccc(CNC(=O)C3(NC(=O)C=Cc4ccoc4)CC3)cc2)no1 [Example 169, 1-(3-Furan-3-yl-acryloylamino)-cyclopropanecarboxylic acid 4-[3-chloro-2-(5-methyl-[1,2,4]oxadiazol-3-yl)-indol-1-yl]-benzylamide] | < 20 nM | < 20 nM
